For series [1], the system named is Z. tritici cells. In kind it is cell-based, Zymoseptoria tritici.
The subject of series [2] is Z. tritici. Briefly: Growth inhibition on agar plates supplemented with compound. In kind it is cell-based, Zymoseptoria tritici.
Series [3] relates to U. maydis. Described as above. Type of series: cell-based, Ustilago maydis.
In series [4] the test system is Z. tritici. In kind it is cell-based, Zymoseptoria tritici.
Series [5] concerns U. maydis. Kind of series: Live/dead staining in liquid culture. Type of series: cell-based, Ustilago maydis.
Series [6] concerns Z. tritici plasma membrane. Type of series: cell-based, Zymoseptoria tritici.
Series [7] has as its system U. maydis plasma membrane. Kind of series: Plasma membrane integrity with GFP-Sso1 marker (patches, photo-bleaching recovery). Type of series: cell-based, Ustilago maydis.
Series [8] concerns Z. tritici. Kind of series: Plasma membrane potential, DiBAC4(3) staining. The note with it: high concentrations. Type of series: cell-based, Zymoseptoria tritici. The procedure:
(§1) Drug-induced leakage of ions from the cell was then determined by visualizing alterations of the membrane potential in C12-G+-treated cells, using the voltage-sensitive fluorescent probe bis-(1,3-dibutylbarbituric acid) trimethine oxonol, DiBAC4(3), which only stains depolarised cells. […] Therefore, the effect on the plasma membrane is most likely not the primary MoA of C12-G+ in fungi.

In series [9] the test system is U. maydis. Kind of series: Plasma membrane potential, DiBAC4(3) staining. Type of series: cell-based, Ustilago maydis. The following applies: high concentrations. On the procedure:
as §1

Series [10] has as its system Z. tritici mitochondria. In kind it is cell-based, Zymoseptoria tritici.
For series [11], the system named is Z. tritici mitochondria. Type of series: cell-based, Zymoseptoria tritici. The note with it: for mitochondrial depolarisation / inhibition of mitochondrial respiration: Z. tritici.
In series [12] the test system is U. maydis mitochondria. Briefly: Mitochondrial depolarisation, TMRM staining. In kind it is cell-based, Ustilago maydis. The note with it: low amounts.
Series [13] deals with cellular respiration. Kind of series: Cellular oxygen consumption in cell suspensions. Type of series: cell-based, U. maydis.
For series [14], the system named is C109 human skin fibroblasts. Kind of series: Mitochondrial organization in human skin fibroblasts. Type of series: cell-based. The procedure: The effects on mitochondria may account for the fungal specificity of C12-G+. To test this, mammalian skin C109 fibroblasts were treated with C12-G+ and monitored for its effect on mitochondrial shape and membrane potential.
Low toxicity to humans and in the environment is an important requirement for fungicides. The toxicity of C12-TPP+, C18-TMA+ and C18-DMS+ was therefore tested on C109 human skin fibroblasts. Mitochondrial organization and mitochondrial membrane potential were monitored after incubating with various concentrations of the compounds.

Series [15] has as its system Daphnia magna. Briefly: Daphnia magna 30 minute treatment, TMRM mitochondrial potential. Type of series: in vivo. The note with it: 1 μg/ml for 30 minutes. The procedure: In addition, the toxicity of C12-G+, C18-TMA+ and C18-DMS+ on the water flea Daphnia magna was investigated. This freshwater crustacean is well-established as a reporter organism in toxicity tests. Firstly, Daphnia magna was treated with 1 μg/ml of C12-G+, C18-TMA+ and C18-DMS+ for 30 minutes, followed by visualization of the mitochondrial potential by TMRM.

For series [16], the system named is Daphnia magna. Briefly: Daphnia magna 24 h toxicity (motility, escape response as indicator of mortality). Type of series: in vivo. On the procedure:
Next, water fleas were treated for 24 h with various concentrations of all three SACCs and their motility behaviour and “escape response” monitored as an indicator of mortality. […] Higher amounts of both C18 SACCs eventually killed Daphnia magna, with C18-TMA+ being 1.8-times more toxic than C18-DMS+.

Series [17] relates to Z. tritici cells. Briefly: Programmed cell death, CaspACE FITC-VAD-FMK with propidium iodide co-staining. The following applies: 24 h treatment. In kind it is cell-based, Zymoseptoria tritici.
Series [18] has as its system Z. tritici (strain IPO323). Details: species or system Zymoseptoria tritici on wheat. The following applies: in vivo.
For series [19], the system named is M. oryzae (strain Guy11). Type of series: in vivo, Magnaporthe oryzae on rice. The note with it: rice; for protection at high concentrations: M. oryzae, high concentrations (75 and 100 μg/ml); for disease symptom development: sprayed 24 h before M. oryzae, 4 days, concentration-dependent.
Series [20] relates to rice leaves. Kind of series: Early plant defence response, diaminobenzidine (DAB) staining of H2O2. In kind it is in vivo. The following applies: 150 μg/ml SACC (salicylic acid 15 mM), 6 h.
In series [21] the test system is wheat leaves. The following applies: in vivo.
Series [22] has as its system rice leaves. The note with it: in vivo.
The test system of series [23] is C109 human skin fibroblasts. Kind of series: Mitochondrial membrane potential in human skin fibroblasts.
The subject of series [24] is C. albicans. In kind it is cell-based, Candida albicans.
Series [25] concerns Candida glabrata. In kind it is cell-based.
Series [26] relates to Candida albicans mitochondria. Type of series: cell-based.
The subject of series [27] is Candida glabrata mitochondria. Type of series: cell-based.
The test system of series [28] is U. maydis. In kind it is cell-based, Ustilago maydis.
For series [29], the system named is C. albicans. In kind it is cell-based, Candida albicans. This is another data set of the same source.
The subject of series [30] is C. glabrata. Type of series: cell-based, Candida glabrata.
For series [31], the system named is Z. tritici cells. Kind of series: Programmed cell death, Annexin-V-fluorescein staining. Type of series: cell-based, Zymoseptoria tritici.

≈ marks a conversion by molar mass, not a printed value. Entries after “also recorded” stand apart in the source; their conditions may differ.

Consider nine compounds from patent publication US12635689B2, “Antifungal compositions” (priority 2019, dated 2026).

In the case of `C=C(C)[C@H]1Cc2c(ccc3c2O[C@@H]2COc4cc(OC)c(OC)cc4[C@@H]2C3=O)O1` [rotenone], in [1], the mROS levels entry is recorded as “decreased mROS levels”; the “more effective in decreasing mROS than C12-G+ and C18-TMA+” value is given as 3-4 times.
With `CCCCCCCCCCCCNC(=N)N` [C12-G+, dodecylguanidinium], the “Z. tritici more sensitive than U. maydis (growth inhibition)” value in series [2] was about 4 times. The “EC50, concentration at 50% inhibition of growth” value in [2] (Z. tritici) came to 0.6 µg/mL; in series [3] it was 2.3 µg/mL. Besides, the cell viability entry is “most cells were still alive” in series [4] (30-45 minutes incubation, up to 100 μg/ml) and “most cells were still alive” in series [5] (30-45 minutes incubation, up to 50 μg/ml). Also, the cells killed in [4] (after 1 h at 100 μg/ml) is recorded as over 80%. In addition, the killing in series [5] (after 1 h at 100 μg/ml) was about 15%. In addition, the “EC50, effect on fungal plasma membrane” value in series [6] (Z. tritici) lay in the range of 20 to 50 µg/mL. In addition, the “lateral mobility of GFP-Sso1” value in series [6] (Z. tritici) is on record as “this effect was not observed”; in series [7] (≥10 μg/ml) it was “significantly reduced the mobility of GFP-Sso1”. For the same compound, the “Z. tritici less sensitive than U. maydis (GFP-Sso1 patches)” value in series [6] (at 50 μg/ml) is about 2 times. For the same compound, the “formation of GFP-Sso1 patches at the cell periphery” value in series [6] (high concentrations, Z. tritici) was “induced the formation of GFP-Sso1”; in [7] (high concentrations) it was “induced the formation of GFP-Sso1”. Besides, the “number of depolarised cells (DiBAC4(3))” value in series [8] is listed as “had only little effect”; in series [9], “increased the number of depolarised cells”. Further, in series [10], the “EC50 on Z. tritici (mitochondrial fragmentation)” value (“EC50 on Z. tritici” for short) was determined as 6.63 µg/mL (≈ 29.2 µM). Further, the “Z. tritici more sensitive than U. maydis (mitochondrial membrane potential)” value in series [11] was about 4 times. In series [12], the “mitochondrial depolarisation (TMRM)” value is recorded as “depolarised mitochondria”. Also, the cellular oxygen consumption result in series [13] is “inhibits cellular respiration”. The “effect on mitochondrial organization” value was “caused organelle fragmentation and swollen cristae” in [14] (beyond 20 μg/ml); “little effect on mitochondrial organization” in series [14] (concentrations up to 20 μg/ml). For the same compound, the “mitochondrial potential (TMRM) in Daphnia magna” value in series [15] was “lost most signal”. Further, the “motility of Daphnia magna” value in series [15] is reported as “did not affect the motility”. Also, the “concentration that killed all Daphnia magna” value in series [16] is about 1000 ng/mL. Besides, the “antimycin A-induced mROS in the presence of compound” value in [1] is “significantly reduced”. For the same compound, the mROS levels entry in [1] is “decreased mROS concentrations; also recorded: significantly reduced mROS”. Further, the “early apoptotic cells (CaspACE FITC-VAD-FMK positive, propidium iodide negative)” value in series [17] is “Only a few apoptotic cells”. Also, the disease symptom development result in series [18] and in series [19] was “Symptom development was inhibited” each time. Besides, the “protection at high concentrations” value in [18] and in series [19] was “does not fully suppress; also recorded: did not fully suppress infection” in each case. The “peroxide production / DAB reaction (plant defence)” value (from here on “peroxide production / DAB reaction”) in series [20] is recorded as “slight peroxide production”. The “chlorosis or necrosis (phytotoxicity)” value in [21] and in series [22] was “none of the SACCs induced chlorosis or necrosis” in each case. The “effect on mitochondrial membrane potential” value in series [23] (C109 fibroblasts) was “modest effect”.
As for `CCCCCCCCCCCC[N+](C)(C)C` [C12-TMA+, dodecyltrimethylammonium], in [10], the “EC50 on Z. tritici” value came to 3.85 µg/mL.
In the case of antimycin A, the mROS levels result in series [1] is given as “increase of mROS”.
Take `CCCCCCCCCCCC[P+](c1ccccc1)(c1ccccc1)c1ccccc1` [C12-TPP+, dodecyltriphenylphosphonium]: the “EC50 on Z. tritici” value in [10] was 6.63 µg/mL. In addition, the “mitochondrial depolarisation / inhibition of mitochondrial respiration” value in [11] is given as “showed significant inhibition of mitochondrial respiration”. Further, the “EC, human mitochondrial organization” value in series [14] (C109 fibroblasts) is 5.62 µg/mL. For the same compound, the “effect on human mitochondrial organization” value in [14] (C109 fibroblasts, various concentrations) is recorded as “little effect on human mitochondrial organization”. The “EC50, human mitochondrial respiration” value in series [23] (C109 fibroblasts) stood at 0.355 µg/mL.
octadecyldimethylsulfonium [C18-DMS+]: the “killing (LIVE/DEAD staining)” value is on record as “efficiently killed” in series [4] (12-14 h exposure, 10 μg/ml); “efficiently killed” in [24]; “efficiently killed” in series [25]. In addition, the “relative toxicity in C. albicans” value in series [24] was “most toxic”. The “EC50 on Z. tritici” value in series [10] worked out at 1.72 µg/mL. In series [11], the “mitochondrial depolarisation / inhibition of mitochondrial respiration” value is “showed significant inhibition of mitochondrial respiration”. In addition, the mitochondrial potential result in series [26] and in [27] was “reduce the mitochondrial potential” each time. Besides, the “human mitochondria less sensitive (mitochondrial morphology)” value in [14] (printed as compared to C12-G+) is on record as about 29 times. The “mitochondrial potential (TMRM) in Daphnia magna” value in [15] is “little or no effect on mitochondrial potential”. Also, the “motility of Daphnia magna” value in series [15] is recorded as “did not affect the motility”. The “effect on Daphnia magna” value in [16] (at ~1 μg/ml) was “little effect at this concentration”. For the same compound, the mROS levels entry in [1] is “significantly induced; also recorded: induced mROS production further”; in [28] it was “significantly induced”; in [29], “significantly induced”; in [30], “significantly induced”. In [1], the “mROS levels with complex I inhibitor rotenone” value is listed as “did not increase mROS levels”. Further, the “early apoptotic cells (CaspACE FITC-VAD-FMK positive, propidium iodide negative)” value in series [17] is “significant increase in early apoptotic cells”. In addition, the “Annexin-V-fluorescein membrane-associated fluorescence in apoptotic cells” value in series [31] was “only found in C18-DMS+-treated cells”. The disease symptom development entry in series [18] and in series [19] was “Symptom development was inhibited” in each case. For the same compound, the “protection at high concentrations” value in series [18] and in series [19] was “almost abolished symptom developments” throughout. In addition, the “peroxide production / DAB reaction” value in series [20] is listed as “much stronger DAB reaction”. Also, the “chlorosis or necrosis (phytotoxicity)” value in [21] and in series [22] was “none of the SACCs induced chlorosis or necrosis” in each case. Also, the “higher specificity for fungi than for humans (inhibition of mitochondrial respiration)” value in series [23] (Z. tritici vs human cells) is recorded as about 53 times.
As to `CCCCCCCCCCCC[N+](CC)(CC)CC` [C12-TEA+, dodecyltriethylammonium], the “EC50 on Z. tritici” value in series [10] is 2.38 µg/mL.
As to `CCCCCCCCCCCC[S+](C)C` [C12-DMS+, dodecyldimethylsulfonium], in series [10], the “EC50 on Z. tritici” value is 7.39 µg/mL. In addition, the mROS levels entry in series [1] was “did not increase mROS levels”.
Consider `O=C(O)c1ccccc1O` [salicylic acid], for which the “peroxide production / DAB reaction” value in series [20] is given as “brown colouring”.
